The supplement of paper PMC11451515

Legend:
Experiment in all cases: AUC of viability dose-response curve (% viability x log10 dose units); higher = less sensitive
Conditions in all cases: 48 h
[1] = test system: NOMO1
Procedure, shortened: (§1)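 Seeding of medium-adapted leukemia cells was at 500 or 1000 cells/well in 1536-well plates, followed by 48 h at 37°C with library compounds in DMSO at 11 threefold doses from 47 μM to 0.79 nM. CellTiter-Glo One luminescence was normalised per plate to DMSO and cell-free wells and fitted as a four-parameter log-logistic function of log10 dose. Area under the curve was integrated by trapezoidal rule, with curves exceeding full viability scaled and curves failing quality control removed.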

[2] = test system: P12-Ichikawa
Procedure, shortened: as §1

[3] = test system: SEM cells
Procedure, shortened: as §1

[4] = RPMI 5 mM glucose + 10% dialyzed FBS

Row | Structure (SMILES) | AUC of viability dose-response curve ([1]; HPLM + 10% dialyzed FBS) | AUC of viability dose-response curve ([1]; RPMI 5 mM glucose + 10% FBS) | AUC of viability dose-response curve [1, 4] | AUC of viability dose-response curve ([2]; HPLM + 10% dialyzed FBS) | AUC of viability dose-response curve ([2]; RPMI 5 mM glucose + 10% FBS) | AUC of viability dose-response curve [2, 4] | AUC of viability dose-response curve ([3]; HPLM + 10% dialyzed FBS) | AUC of viability dose-response curve ([3]; RPMI 5 mM glucose + 10% FBS) | AUC of viability dose-response curve [3, 4]
1 | CC[C@@]1(O)C(=O)OCC/2=C1/C=C3\N(CC4=CC5=CC(=CC=C5N=C34)O)C2=O | 251 | 261 | 271 | 180 | 176 | 181 | – | – | –
2 | COc1cc2nc(N3CCN(C(=O)C4CCCO4)CC3)nc(N)c2cc1OC (stereo not drawn) | 473 | 471 | 458 | 447 | 470 | 445 | 430 | 460 | 418
3 | CCN(CC)CCCCNc1ncc2c(n1)N(C)C(=O)N(c1c(Cl)c(OC)cc(OC)c1Cl)C2 | 429 | 453 | 451 | 450 | 446 | 448 | 423 | 421 | 422
4 | Nc1cc(C(F)(F)F)c(-c2cc(N3CCOCC3)nc(N3CCOCC3)n2)cn1 | 317 | 340 | 334 | 328 | 334 | 329 | 307 | 283 | 299
